Assay [1] has as its target T1, hMCD (malonyl-CoA decarboxylase) (Homo sapiens, UniProt O95822).
T1 sequence (O95822 40-493): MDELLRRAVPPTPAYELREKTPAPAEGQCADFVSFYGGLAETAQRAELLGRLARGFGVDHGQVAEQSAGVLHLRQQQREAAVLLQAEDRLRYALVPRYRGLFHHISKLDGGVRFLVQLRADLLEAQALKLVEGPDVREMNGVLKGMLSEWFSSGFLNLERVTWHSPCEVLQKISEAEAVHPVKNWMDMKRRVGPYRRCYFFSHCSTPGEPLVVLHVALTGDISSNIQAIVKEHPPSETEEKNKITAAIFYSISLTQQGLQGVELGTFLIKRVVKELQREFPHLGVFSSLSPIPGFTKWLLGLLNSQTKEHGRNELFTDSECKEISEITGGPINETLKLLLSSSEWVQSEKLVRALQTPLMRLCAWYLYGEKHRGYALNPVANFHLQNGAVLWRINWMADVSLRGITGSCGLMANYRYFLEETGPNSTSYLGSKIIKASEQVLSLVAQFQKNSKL
Kind of assay: In Vitro MCD Inhibitory Assay. The format is biochemical. On the procedure: In Vitro MCD Inhibitory Assay:
The conversion of […] was assayed using a modified protocol as previously described by Kim, Y. S. and Kolattukudy, P. E. in 1978 (Arch. Biochem. Biophys 190:585 (1978)). As shown in eq. 1-3, the establishment of the kinetic equilibrium between malate/NAD and oxaloacetate/NADH was catalyzed by malic dehydrogenase (eq. 2). […] The accumulation of NADH can be continuously followed by monitoring the increase of fluorescence emission at 460 nm on a fluorescence plate reader. The fluorescence plate reader was calibrated using the authentic acetyl-CoA from Sigma. For a typical 96-well plate assay, the increase in the fluorescence emission (λex=360 nm, λem=460 nm, for NADH) in each well was used to calculate the initial velocity of hMCD. Each 50 μL assay contained 10 mM phosphate buffered saline (Sigma), pH 7.4, 0.05% Tween-20, 25 mM K2HPO4—KH2PO4 (Sigma), 2 mM Malate (Sigma), 2 mM NAD (Boehringer Mannheim), 0.786 units of MD (Roche Chemicals), 0.028 unit of CS (Roche Chemicals), 5-10 nM hMCD, and varying amounts of MCA substrate. Assays were initiated by the addition of MCA, and the rates were corrected for the background rate determined in the absence of hMCD.

Assay [2] deals with Isolated Working Rat Hearts. Kind of assay: Glucose oxidation in isolated working rat hearts. On the set-up: unit not given here. Particulars: DMSO control. The protocol:
Isolated Working Rat Heart Assay Protocol
Isolated working hearts from male Sprague-Dawley rats (300-350 g) are subjected to a 60-minute aerobic perfusion period. The working hearts are perfused with 95% O2, 5% CO2 with a modified Krebs-Henseleit solution containing 5 mM glucose; 100 μU/mL insulin; 3% fatty acid-free BSA; 2.5 mM free Ca^2+, and 0.4 to 1.2 mmol/L palmitate (Kantor et al., Circulation Research 86:580-588(2000)). The test compound is added 5 minutes before the perfusion period. DMSO (0.05%) is used as control.
Measurement of Glucose Oxidation Rates
Samples were taken at 10-minute intervals for measurements of experimental parameters. Glucose oxidation rates are determined by the quantitative collection of ^14CO2 produced by hearts perfused with buffer containing [U14]-Glucose (R. Barr and G. Lopaschuk, in “Measurement of cardiovascular function”, McNeill, J. H. ed., Chapter 2, CRC press, New York (1997)). After the perfusion, the ^14CO2 from the perfusae is subsequently released by injecting 1 mL of perfusate into sealed test tube containing 1 mL of 9N H2SO4. The tube was sealed with a rubber stopper attached to a scintillation vial containing a piece of filter papers saturated with 300 μl of hyamine hydroxide. The scintillation vials with filter papers were then removed and Ecolite Scintillation Fluid added. Samples were counted by standard procedures as described above. Average rates of glucose oxidation for each phase of perfusion are expressed as μmol/min/g dry wt as described above.
Rates of fatty acid oxidation are determined using the same method as described above for glucose oxidation rate measurement using [^14C]palmitate or by the quantitative collection of ^3H2O produced by hearts perfused with buffer containing [5-^3H]palmitate (R. Barr and G. Lopaschuk, in “Measurement of cardiovascular function”, McNeill, J. H. ed., Chapter 2, CRC press, New York (1997)). ^3H2O was separated from [5-^3H]palmitate by treating 0.5 mL buffer samples with 1.88 mL of a mixture of chloroform/methanol (1:2 v:v) and then adding 0.625 mL of chloroform and 0.625 mL of a 2 M KCl/HCl solution. The sample is centrifuged for 10 min and aqueous phase was removed and treated with a mixture of 1 mL of chloroform, 1 mL of methanol and 0.9 mL KCl/HCl with a ration of 1:1:0.9. The aqueous layer was then counted for total ^3H2O determination. […] Average rates of fatty acid oxidation for each phase of perfusion are expressed as nmol/min/g dry wt after taking consideration the dilution factor. Active compounds are characterized by an increase in glucose oxidation and/or decrease in fatty acid oxidation as compared to the control experiments (DMSO). The compounds that caused statistically significant increases in glucose oxidation and/or decrease in fatty acid oxidation are considered to be active. Statistical significance was calculated using the Student's t test for paired or unpaired samples, as appropriate. The results with P<0.05 are considered to be statistically significant.

Assay [3] has as its system breast carcinoma cells. Particulars: cited from earlier work.
In assay [4] the test system is CPT-I muscle isoform. Particulars: muscle isoform of CPT-I; read-out: IC50 of malonyl-CoA inhibition; cited from earlier work.
Assay [5] has as its system CPT-I liver isoform. Particulars: liver isoform of CPT-I; read-out: IC50 of malonyl-CoA inhibition; cited from earlier work.

The molecule `COc1ccc(NC(=NC#N)Nc2ccc3nc(S)sc3c2)cc1` [CBM-000302018] returned a Ki in assay [1] (Table 1, MCD inhibition) of 133 nM.

As for `CCCN(/C(=N/C#N)Nc1ccccc1)c1ccc2nc(S)sc2c1` [CBM-000302043], in assay [1] (Table 1, MCD inhibition), the affinity, expressed as Ki, was 7.2 nM.

For `N#C/N=C(\Nc1ccc(OC(F)(F)F)cc1)Nc1ccc2nc(S)sc2c1` [CBM-000302047, N-cyano-N′-(2-mercapto-benzothiazol-6-yl)-N″-(4-trifluoromethoxy-phenyl)guanidine], the Ki in assay [1] (Table 1, MCD inhibition) was determined as 242 nM.

Consider `CCCCOc1ccc(NC(=NC#N)Nc2ccc3nc(S)sc3c2)cc1` [CBM-000302048], for which the Ki in assay [1] (Table 1, MCD inhibition) came out at 35.1 nM.

In assay [1] (Table 1, MCD inhibition), `CCOc1ccc(NC(=NC#N)Nc2ccc3nc(S)sc3c2)cc1` [CBM-000302049] returned a Ki of 448 nM.

`CCCN(C(=NC#N)Nc1ccc(OC)cc1)c1ccc2nc(S)sc2c1` [CBM-000302050]: affinity in assay [1] (Table 1, MCD inhibition) was put at a Ki of 15.2 nM.

Consider `CCCN(/C(=N/C#N)Nc1ccccc1)c1ccc2nc(S)sc2c1` [CBM-000302051], for which, in assay [1] (Table 1, MCD inhibition), the affinity corresponds to a Ki of 5.6 nM.

As to `CCCN(C(=NC#N)Nc1ccc(OC(F)(F)F)cc1)c1ccc2nc(S)sc2c1` [CBM-000302052], the Ki in assay [1] (Table 1, MCD inhibition) worked out at 67.1 nM; in assay [1] (Table 2, MCD inhibition) it was 67.1 nM. Moreover, the GOX in assay [2] turned out to be 131.

For the molecule `COc1ccc(NC(=NC#N)N(CC(C)C)c2ccc3nc(S)sc3c2)cc1` [CBM-000302064], in assay [1] (Table 1, MCD inhibition), the Ki was 7.1 nM.

In the case of `CC(C)CN(C(=NC#N)Nc1ccc(OC(F)(F)F)cc1)c1ccc2nc(S)sc2c1` [CBM-000302065], the Ki in assay [1] (Table 1, MCD inhibition) was determined as 22.5 nM.

`COC(=O)c1ccc(NC(=NC#N)N(CC(C)C)c2ccc3nc(S)sc3c2)cc1` [CBM-000302073]: the Ki in assay [1] (Table 1, MCD inhibition) is 4.7 nM.

`CCCN(C(=NC#N)Nc1ccc(C(F)(F)F)cc1)c1ccc2nc(S)sc2c1` [CBM-000302075]: the Ki in assay [1] (Table 1, MCD inhibition) stood at 3.5 nM; in assay [1] (Table 2, MCD inhibition), 3.5 nM. For the same molecule, the GOX in assay [2] came to 230.

In turn, `CC(C)CN(C(=NC#N)Nc1ccc(C(F)(F)F)cc1)c1ccc2nc(S)sc2c1` [CBM-000302076] gave a Ki in assay [1] (Table 1, MCD inhibition) of 82.4 nM.

Turning to `CC(C)CN(C(=NC#N)Nc1ccc(C(=O)O)cc1)c1ccc2nc(S)sc2c1` [CBM-000302088], the Ki in assay [1] (Table 1, MCD inhibition) turned out to be 0.3 nM.

Take `CCN(/C(=N/C#N)Nc1ccc(C(F)(F)F)cc1)c1ccc2nc(S)sc2c1` [CBM-000302107, N-cyano-N′-ethyl-N′-(2-mercapto-benzothiazol-6-yl)-N″-(4-trifluoromethyl-phenyl)guanidine]: the Ki is 1.7 nM in assay [1] (Table 1, MCD inhibition) and 1.7 nM in assay [1] (Table 2, MCD inhibition). In addition, in assay [2], the GOX stood at 290.

In the case of `CCCN(C(=NC#N)Nc1ccc(C(=O)O)cc1)c1ccc2nc(S)sc2c1` [CBM-000302112], in assay [1] (Table 1, MCD inhibition), the affinity, expressed as Ki, was 1.5 nM.

For the molecule `CCCCN(/C(=N/C#N)Nc1cccnc1)c1ccc2nc(S)sc2c1` [CBM-000302113], the affinity in assay [1] (Table 1, MCD inhibition), expressed as Ki, was 110 nM.

With `CCCCN(C(=NC#N)Nc1cccc(C(F)(F)F)c1)c1ccc2nc(S)sc2c1` [CBM-000302114], in assay [1] (Table 1, MCD inhibition), affinity was put at a Ki of 210 nM.

Molecule `CC(C)CN(C(=NC#N)Nc1cccc(C(F)(F)F)c1)c1ccc2nc(S)sc2c1` [CBM-000302115] yielded a Ki in assay [1] (Table 1, MCD inhibition) of 320 nM.

`CN(C(=NC#N)Nc1ccc(C(F)(F)F)cc1)c1ccc2nc(S)sc2c1` [CBM-000302167]: the Ki in assay [1] (Table 1, MCD inhibition) is 2 nM; in assay [1] (Table 2, MCD inhibition) it was 2 nM. This molecule registered a GOX in assay [2] of 239.

With `CCN(C(=NC#N)Nc1ccc(C(N)=O)cc1)c1ccc2nc(S)sc2c1` [CBM-000302189], the Ki in assay [1] (Table 1, MCD inhibition) was found to be 2.8 nM; in assay [1] (Table 2, MCD inhibition) it was 2.8 nM. The molecule also registered a GOX in assay [2] of 96.

In assay [1] (Table 1, MCD inhibition), `CCN(C(=NC#N)Nc1ccc(C(=O)NCC(C)C)cc1)c1ccc2nc(S)sc2c1` [CBM-000302243] showed a Ki of 24.2 nM.

Regarding `CCCCNC(=O)c1ccc(NC(=NC#N)N(CC)c2ccc3nc(S)sc3c2)cc1` [CBM-000302244], the inhibition constant (Ki) in assay [1] (Table 1, MCD inhibition) is 5.6 nM; in assay [1] (Table 2, MCD inhibition) it was 5.6 nM. The molecule also gave a GOX in assay [2] of 152.

Turning to `CCN(C(=NC#N)NCc1ccc(C(F)(F)F)cc1)c1ccc2nc(S)sc2c1` [CBM-000302290], the affinity in assay [1] (Table 1, MCD inhibition) corresponds to a Ki of 82.4 nM.

In turn, `CCN(C(=NC#N)NCc1ccc(OC(F)(F)F)cc1)c1ccc2nc(S)sc2c1` [CBM-000302291] registered a Ki in assay [1] (Table 1, MCD inhibition) of 49.5 nM.

For `CC(C)N(/C(=N/C#N)Oc1ccccc1)c1ccc2nc(S)sc2c1` [CBM-000302339, 3-Cyano-1-isopropyl-1-(2-mercapto-benzothiazol-6-yl)-2-phenyl-isourea], the Ki in assay [1] (Table 1, MCD inhibition) came out at 5.9 nM.

`CCCCCCCCCCCCCCOc1ccc(C(=O)O)o1` [TOFA, 5-(tetradecyloxy)-2-furoic acid]: the malonyl-CoA level in assay [3] is recorded as 60 % of the control.

Take `CC(C)(COP(=O)(O)OP(=O)(O)OC[C@H]1O[C@@H](n2cnc3c(N)ncnc32)[C@H](O)[C@@H]1OP(=O)(O)O)[C@@H](O)C(=O)NCCC(=O)NCCSC(=O)CC(=O)O` [malonyl-CoA]: the IC50 was 30 nM in assay [4] and 2500 nM in assay [5].

The term Ki denotes a dissociation constant, usually derived from enzyme kinetics or from competition with a known ligand. The term IC50 denotes the midpoint of a concentration-inhibition curve.

The record behind these values is patent US7786145B2, “Cyanoguanidine-based azole compounds useful as malonyl-CoA decarboxylase inhibitors” (Chugai Seiyaku Kabushiki Kaisha, priority 2003, dated 2010).
